According to patent US12077503B2, “Substituted cyclic amides and their use as herbicides” (FMC CORPORATION, priority 2015, dated 2024):

What was measured:
Type in all cases: in vivo
[1] = tested on: water seeded rice seedlings (Rice, W. S. Jap, Oryza sativa cv. ‘Japonica—M202’); test: Test F flooded paddy test; set-up: key: 0 = no effect, 100 = complete control; conditions: Flood
Text: (§1) Plant species in the flooded paddy test consisted of one stand of 9 or 10 water seeded rice seedlings (Rice, W. S. Jap, Oryza sativa cv. ‘Japonica—M202’ or Rice, W. S. Ind, ‘Indica’), and two stands of 3 or 4 transplanted rice seedlings (Oryza sativa cv. ‘Japonica—M202’), Monochoria (Monochoria vaginalis), sedge, umbrella (small-flower umbrella sedge, Cyperus difformis), hardstem bulrush (Scirpus juncoides), redstem (purple redstem, Ammannia coccinea), rice flatsedge (Cyperus iria), bearded sprangletop (Leptochloa fascicularis), barnyardgrass (Echinochloa crus-galli), waterplantain (common waterplantain, Alisma plantago-aquatica), and late watergrass (Echinochloa oryzicola) grown to the 2 to 2.5 leaf stage for testing. Potted plants were grown in a greenhouse with day/night temperature settings of 30/27° C., and supplemental balanced lighting was provided to maintain a 16-hour photoperiod. At time of treatment, test pots were flooded to 3 cm above the soil surface, treated by application of test compounds directly to the paddy water, and then maintained at that water depth for the duration of the test. Effects of treatments on rice and weeds were visually evaluated by comparison to untreated controls after 21 d. Plant response ratings, summarized in Table F, are based on a scale of 0 to 100 where 0 is no effect and 100 is complete control. A dash (-) response means no test result.

[2] = tested on: Monochoria (Monochoria vaginalis); test: Test F flooded paddy test; set-up: key: 0 = no effect, 100 = complete control; conditions: Flood
Text: as §1

[3] = tested on: sedge, umbrella (small-flower umbrella sedge, Cyperus difformis); test: Test F flooded paddy test; set-up: key: 0 = no effect, 100 = complete control; conditions: Flood
Text: as §1

[4] = tested on: late watergrass (Echinochloa oryzicola); test: Test F flooded paddy test; set-up: key: 0 = no effect, 100 = complete control; conditions: Flood
Text: as §1

[5] = tested on: rice flatsedge (Cyperus iria); test: Test F flooded paddy test; set-up: key: 0 = no effect, 100 = complete control; conditions: Flood
Text: as §1

[6] = tested on: transplanted rice seedlings (Oryza sativa cv. ‘Japonica—M202’); test: Test F flooded paddy test; set-up: key: 0 = no effect, 100 = complete control; conditions: Flood
Text: as §1

[7] = tested on: bearded sprangletop (Leptochloa fascicularis); test: Test F flooded paddy test; set-up: key: 0 = no effect, 100 = complete control; conditions: Flood
Text: as §1

[8] = tested on: barnyardgrass (Echinochloa crus-galli); test: Test F flooded paddy test; set-up: key: 0 = no effect, 100 = complete control; conditions: Flood
Text: as §1

[9] = tested on: foxtail, giant (giant foxtail, Setaria faberii); test: Test C postemergence; conditions: scale 0 to 100, 0 no effect, 100 complete control
How it was run: (§2)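 Greenhouse test: seeds in a loam and sand blend treated preemergence, or seedlings at the 1- to 4-leaf stage (2 to 18 cm) in a peat, vermiculite and limestone mix treated postemergence, with test chemicals in a surfactant-containing non-phytotoxic solvent. Scored by eye at 13 to 15 d relative to controls, 0 (no effect) to 100 (complete control).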

[10] = tested on: nutsedge, yellow (yellow nutsedge, Cyperus esculentus); test: Test C postemergence; conditions: scale 0 to 100, 0 no effect, 100 complete control
How it was run: as §2

[11] = tested on: chickweed (common chickweed, Stellaria media); test: Test C postemergence; conditions: scale 0 to 100, 0 no effect, 100 complete control
How it was run: as §2

[12] = tested on: crabgrass, large (large crabgrass, Digitaria sanguinalis); test: Test C postemergence; conditions: scale 0 to 100, 0 no effect, 100 complete control
How it was run: as §2

[13] = tested on: ragweed (common ragweed, Ambrosia elatior); test: Test C postemergence; conditions: scale 0 to 100, 0 no effect, 100 complete control
How it was run: as §2

[14] = tested on: morningglory (Ipomoea coccinea); test: Test C postemergence; conditions: scale 0 to 100, 0 no effect, 100 complete control
How it was run: as §2

[15] = tested on: Kochia (Kochia scoparia); test: Test C postemergence; conditions: scale 0 to 100, 0 no effect, 100 complete control
How it was run: as §2

CN1C[C@H](c2ccc(F)c(F)c2)[C@@H](C(=O)Nc2cccc(F)c2F)C1=O [Compound 639, (3S,4S)—N-(2,3-difluorophenyl)-4-(3,4-difluorophenyl)-1-methyl-2-oxo-3-pyrrolidinecarboxamide] was tested, and the “Plant response rating: Rice, Water Seeded” value ([1]; 32 g ai/ha) was 0, the “Plant response rating: Rice, Water Seed.” value ([1]; 64 g ai/ha) was 40 and the “Plant response rating: Rice, Water Seed.” value ([1]; 125 g ai/ha) was 50. The “Plant response rating: Rice, Water Seeded” value ([1]; 250 g ai/ha) was 75, the “Plant response rating: Monochoria” value ([2]; 32 g ai/ha) was 65 and the “Plant response rating: Monochoria” value ([2]; 64 g ai/ha) was 98. The “Plant response rating: Monochoria” value ([2]; 125 g ai/ha) was 100, the “Plant response rating: Monochoria” value ([2]; 250 g ai/ha) was 100 and the “Plant response rating: Sedge, Umbrella” value ([3]; 32 g ai/ha) was 0. The “Plant response rating: Sedge, Umbrella” value ([3]; 64 g ai/ha) was 0, the “Plant response rating: Sedge, Umbrella” value ([3]; 125 g ai/ha) was 0 and the “Plant response rating: Sedge, Umbrella” value ([3]; 250 g ai/ha) was 0. For the same molecule, the “Plant response rating: Watergrass, Late” value ([4]; 32 g ai/ha) was 100, the “Plant response rating: Watergrass, Late” value ([4]; 64 g ai/ha) was 100 and the “Plant response rating: Watergrass, Late” value ([4]; 125 g ai/ha) was 100. The “Plant response rating: Watergrass, Late” value ([4]; 250 g ai/ha) was 100, the “Plant response rating: Flatsedge, Rice” value ([5]; 32 g ai/ha) was 0 and the “Plant response rating: Flatsedge, Rice” value ([5]; 64 g ai/ha) was 0. The “Plant response rating: Flatsedge, Rice” value ([5]; 125 g ai/ha) was 0, the “Plant response rating: Flatsedge, Rice” value ([5]; 250 g ai/ha) was 0 and the “Plant response rating: Rice, Transplanted” value ([6]; 32 g ai/ha) was 0. For the same molecule, the “Plant response rating: Rice, Transplanted” value ([6]; 64 g ai/ha) was 15, the “Plant response rating: Rice, Transplanted” value ([6]; 125 g ai/ha) was 25 and the “Plant response rating: Rice, Transplanted” value ([6]; 250 g ai/ha) was 40. For the same molecule, the “Plant response rating: Sprangletop, Brdd.” value ([7]; 32 g ai/ha) was 85, the “Plant response rating: Sprangletop, Brdd.” value ([7]; 64 g ai/ha) was 85 and the “Plant response rating: Sprangletop, Brdd.” value ([7]; 125 g ai/ha) was 95. For the same molecule, the “Plant response rating: Sprangletop, Brdd.” value ([7]; 250 g ai/ha) was 98, the “Plant response rating: Barnyardgrass” value ([8]; 32 g ai/ha) was 90 and the “Plant response rating: Barnyardgrass” value ([8]; 64 g ai/ha) was 100. For the same molecule, the “Plant response rating: Barnyardgrass” value ([8]; 125 g ai/ha) was 100, the “Plant response rating: Barnyardgrass” value ([8]; 250 g ai/ha) was 100 and the “Plant response rating, Foxtail, Giant” value ([9]; 31 g ai/ha) was 35. For the same molecule, the “Plant response rating, Foxtail, Giant” value ([9]; 62 g ai/ha) was 60, the “Plant response rating, Foxtail, Giant” value ([9]; 125 g ai/ha) was 80 and the “Plant response rating, Foxtail, Giant” value ([9]; 250 g ai/ha) was 85. For the same molecule, the “Plant response rating, Nutsedge, Yellow” value ([10]; 31 g ai/ha) was 0, the “Plant response rating, Nutsedge, Yellow” value ([10]; 62 g ai/ha) was 0 and the “Plant response rating, Nutsedge, Yellow” value ([10]; 125 g ai/ha) was 0. For the same molecule, the “Plant response rating, Nutsedge, Yellow” value ([10]; 250 g ai/ha) was 10, the “Plant response rating, Chickweed” value ([11]; 31 g ai/ha) was 40 and the “Plant response rating, Chickweed” value ([11]; 62 g ai/ha) was 40. For the same molecule, the “Plant response rating, Chickweed” value ([11]; 125 g ai/ha) was 50, the “Plant response rating, Chickweed” value ([11]; 250 g ai/ha) was 90 and the “Plant response rating, Crabgrass, Large” value ([12]; 31 g ai/ha) was 60. The “Plant response rating, Crabgrass, Large” value ([12]; 62 g ai/ha) was 70, the “Plant response rating, Crabgrass, Large” value ([12]; 125 g ai/ha) was 70 and the “Plant response rating, Crabgrass, Large” value ([12]; 250 g ai/ha) was 80. The “Plant response rating, Ragweed” value ([13]; 31 g ai/ha) was 0, the “Plant response rating, Ragweed” value ([13]; 62 g ai/ha) was 10 and the “Plant response rating, Ragweed” value ([13]; 125 g ai/ha) was 50. For the same molecule, the “Plant response rating, Ragweed” value ([13]; 250 g ai/ha) was 65, the “Plant response rating, Morningglory” value ([14]; 31 g ai/ha) was 30 and the “Plant response rating, Morningglory” value ([14]; 62 g ai/ha) was 25. The “Plant response rating, Morningglory” value ([14]; 125 g ai/ha) was 60, the “Plant response rating, Morningglory” value ([14]; 250 g ai/ha) was 75 and the “Plant response rating, Kochia” value ([15]; 31 g ai/ha) was 40. The “Plant response rating, Kochia” value ([15]; 62 g ai/ha) was 50, the “Plant response rating, Kochia” value ([15]; 125 g ai/ha) was 80 and the “Plant response rating, Kochia” value ([15]; 250 g ai/ha) was 85.
